# Laboratory results from US11000033B2, “Ketone or oxime compound, and herbicide” (NISSAN CHEMICAL CORPORATION, priority 2014, dated 2021).
# Legend:
# Format in all cases: in vivo
# [1] = test system: Echinochloa oryzacola Vasing.; assay: Test Example 1: herbicidal activity, application before weed generation in submerged conditions (symbol A); conditions: application herbicide amount 320 g/ha
# Outline: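 Flooded alluvial soil (4 cm water) was mixed-sown with the three weed species, and 2.5-leaf rice seedlings were transplanted. On sowing day, a water-diluted emulsion at a predetermined rate was applied to the water surface. After 3 weeks in a 25–30 °C greenhouse, effect was scored 0–5.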
# [2] = test system: Echinochloa oryzacola Vasing.; assay: Test Example 2: herbicidal activity, application during weed generation in submerged conditions (symbol A); conditions: Table 23; application herbicide amount 320 g/ha; grade 0-5 by criteria of Test Example 1
# Outline: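 Compound was applied as a water-diluted emulsion into the standing water of flooded pots (4 cm) once co-sown weeds reached one to two leaves. Greenhouse temperature was 25° C. to 30° C., soil was alluvial, and each species was rated visually after 3 weeks.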
# [3] = test system: Echinochloa crus-galli var. crus-galli; assay: Test Example 4: herbicidal effect by soil treatment (symbol H); conditions: 320 g/ha
# Outline: (§1)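 Seeds were sown in sterilized diluvial soil, covered with about 1.5 cm of soil, and the soil surface was sprayed with a water-diluted emulsion of the compound at a predetermined rate. Plants grew in a greenhouse at 25° C. to 30° C.; effects were scored visually 3 weeks after application.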
# [4] = test system: Avena fatua; assay: Test Example 4: herbicidal effect by soil treatment (symbol I); conditions: 320 g/ha
# Outline: as §1
# [5] = test system: Alopecurus myosuroides; assay: Test Example 4: herbicidal effect by soil treatment (symbol J); conditions: 320 g/ha
# Outline: as §1
# [6] = test system: Lolium multiflorum Lam.; assay: Test Example 4: herbicidal effect by soil treatment (symbol K); conditions: 320 g/ha
# Outline: as §1
# [7] = test system: Veronica persica; assay: Test Example 4: herbicidal effect by soil treatment (symbol R); conditions: 320 g/ha
# Outline: as §1
# [8] = test system: corn; assay: Test Example 4: effect on crop by soil treatment (symbol c); conditions: 320 g/ha
# Outline: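 Steps: fill box with sterilized diluvial soil; sow seed spot-like; cover with ~1.5 cm soil; grow in greenhouse (25° C. to 30° C.).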
# [9] = test system: rapeseed; assay: Test Example 4: effect on crop by soil treatment (symbol g); conditions: 320 g/ha
# Outline: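 The test used sterilized diluvial soil. Seed was set down in spots and overlaid with about 1.5 cm of soil before growth in a greenhouse kept at 25° C. to 30° C.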
# [10] = test system: Setaria viridis; assay: Test Example 5: herbicidal effect by foliage application, plastic box (symbol G); conditions: 320 g/ha, 3 weeks after application
# Outline: (§2)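 After sowing into sterilized diluvial soil and growing two weeks under glass at 25° C. to 30° C., seedlings receive a uniform foliar spray of diluted emulsion. Damage is judged visually three weeks on.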
# [11] = test system: Lolium multiflorum Lam.; assay: Test Example 5: herbicidal effect by foliage application, plastic box (symbol K); conditions: 320 g/ha, 3 weeks after application
# Outline: as §2
# [12] = test system: Abutilon theophrasti; assay: Test Example 5: herbicidal effect by foliage application, plastic box (symbol M); conditions: 320 g/ha, 3 weeks after application
# Outline: as §2
# [13] = test system: Amaranthus retroflexus; assay: Test Example 5: herbicidal effect by foliage application, plastic box (symbol N); conditions: 320 g/ha, 3 weeks after application
# Outline: as §2
# [14] = test system: Stellaria media; assay: Test Example 5: herbicidal effect by foliage application, plastic box (symbol P); conditions: 320 g/ha, 3 weeks after application
# Outline: as §2
# [15] = test system: Galium spurium; assay: Test Example 5: herbicidal effect by foliage application, plastic box (symbol Q); conditions: 320 g/ha, 3 weeks after application
# Outline: as §2
# [16] = test system: Veronica persica; assay: Test Example 5: herbicidal effect by foliage application, plastic box (symbol R); conditions: 320 g/ha, 3 weeks after application
# Outline: as §2
# [17] = test system: rice plant; assay: Test Example 5: effect on crop by foliage application, plastic box (symbol b); conditions: 320 g/ha, 3 weeks after application
# Outline: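 Foliage-application test plants come from spot sowing in sterilized diluvial soil under a soil layer of about 1.5 cm, grown at 25° C. to 30° C. in a greenhouse.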
SMILES,"Herbicidal effect grade, A: Echinochloa oryzacola Vasing. [1]","Herbicidal effect grade, A: Echinochloa oryzacola Vasing. [2]","H: Echinochloa crus-galli var. crus-galli, herbicidal effect grade [3]","I: Avena fatua, herbicidal effect grade [4]","J: Alopecurus myosuroides, herbicidal effect grade [5]","K: Lolium multiflorum Lam., herbicidal effect grade [6]","R: Veronica persica, herbicidal effect grade [7]","c: corn, effect grade on crop [8]","g: rapeseed, effect grade on crop [9]","G: Setaria viridis, herbicidal effect (criteria 0-5) [10]","K: Lolium multiflorum Lam., herbicidal effect (criteria 0-5) [11]","M: Abutilon theophrasti, herbicidal effect (criteria 0-5) [12]","N: Amaranthus retroflexus, herbicidal effect (criteria 0-5) [13]","P: Stellaria media, herbicidal effect (criteria 0-5) [14]","Q: Galium spurium, herbicidal effect (criteria 0-5) [15]","R: Veronica persica, herbicidal effect (criteria 0-5) [16]","b: directly sowed rice plant, effect on crop (criteria 0-5) [17]"
CON=C(C)CC1CC(OC(=O)C(C)Oc2ccc(Oc3cnc4cc(Cl)ccc4n3)cc2)=C(c2c(C)cc(C)cc2C)C1=O (centres unmarked) [1-087],5 (Herbicidal ratio of 90% or more (almost completely withered)),5 (Herbicidal ratio of 90% or more (almost completely withered)),5 (Herbicidal ratio of 90% or more (almost completely withered)),3 (Herbicidal ratio of 40% or higher and lower than 70%),5 (Herbicidal ratio of 90% or more (almost completely withered)),5 (Herbicidal ratio of 90% or more (almost completely withered)),0 (Herbicidal ratio of 5% or lower (almost no effect)),3 (Herbicidal ratio of 40% or higher and lower than 70%),5 (Herbicidal ratio of 90% or more (almost completely withered)),5 (Herbicidal ratio of 90% or more (almost completely withered)),5 (Herbicidal ratio of 90% or more (almost completely withered)),5 (Herbicidal ratio of 90% or more (almost completely withered)),4 (Herbicidal ratio of 70% or higher and lower than 90%),3 (Herbicidal ratio of 40% or higher and lower than 70%),4 (Herbicidal ratio of 70% or higher and lower than 90%),3 (Herbicidal ratio of 40% or higher and lower than 70%),5 (Herbicidal ratio of 90% or more (almost completely withered))
CON=C(C)CC1CC(OC(=O)COc2ccc3ccccc3c2)=C(c2c(C)cc(C)cc2C)C1=O (centres unmarked) [1-083],5 (Herbicidal ratio of 90% or more (almost completely withered)),5 (Herbicidal ratio of 90% or more (almost completely withered)),5 (Herbicidal ratio of 90% or more (almost completely withered)),3 (Herbicidal ratio of 40% or higher and lower than 70%),5 (Herbicidal ratio of 90% or more (almost completely withered)),5 (Herbicidal ratio of 90% or more (almost completely withered)),0 (Herbicidal ratio of 5% or lower (almost no effect)),4 (Herbicidal ratio of 70% or higher and lower than 90%),4 (Herbicidal ratio of 70% or higher and lower than 90%),5 (Herbicidal ratio of 90% or more (almost completely withered)),5 (Herbicidal ratio of 90% or more (almost completely withered)),4 (Herbicidal ratio of 70% or higher and lower than 90%),4 (Herbicidal ratio of 70% or higher and lower than 90%),4 (Herbicidal ratio of 70% or higher and lower than 90%),0 (Herbicidal ratio of 5% or lower (almost no effect)),0 (Herbicidal ratio of 5% or lower (almost no effect)),5 (Herbicidal ratio of 90% or more (almost completely withered))
C=CC(CC1CC(O)=C(c2c(C)cc(C)cc2C)C1=O)=NOC (centres unmarked) [1-086],5 (Herbicidal ratio of 90% or more (almost completely withered)),5 (Herbicidal ratio of 90% or more (almost completely withered)),1 (Herbicidal ratio of 5% or higher and lower than 20%),3 (Herbicidal ratio of 40% or higher and lower than 70%),3 (Herbicidal ratio of 40% or higher and lower than 70%),5 (Herbicidal ratio of 90% or more (almost completely withered)),0 (Herbicidal ratio of 5% or lower (almost no effect)),1 (Herbicidal ratio of 5% or higher and lower than 20%),2 (Herbicidal ratio of 20% or higher and lower than 40%),3 (Herbicidal ratio of 40% or higher and lower than 70%),5 (Herbicidal ratio of 90% or more (almost completely withered)),0 (Herbicidal ratio of 5% or lower (almost no effect)),0 (Herbicidal ratio of 5% or lower (almost no effect)),0 (Herbicidal ratio of 5% or lower (almost no effect)),0 (Herbicidal ratio of 5% or lower (almost no effect)),2 (Herbicidal ratio of 20% or higher and lower than 40%),4 (Herbicidal ratio of 70% or higher and lower than 90%)
CON=C(C)CC1CC(OC(=O)C2=CCCC2)=C(c2c(C)cc(C)cc2C)C1=O (centres unmarked) [1-088],5 (Herbicidal ratio of 90% or more (almost completely withered)),5 (Herbicidal ratio of 90% or more (almost completely withered)),5 (Herbicidal ratio of 90% or more (almost completely withered)),3 (Herbicidal ratio of 40% or higher and lower than 70%),5 (Herbicidal ratio of 90% or more (almost completely withered)),5 (Herbicidal ratio of 90% or more (almost completely withered)),0 (Herbicidal ratio of 5% or lower (almost no effect)),4 (Herbicidal ratio of 70% or higher and lower than 90%),4 (Herbicidal ratio of 70% or higher and lower than 90%),5 (Herbicidal ratio of 90% or more (almost completely withered)),5 (Herbicidal ratio of 90% or more (almost completely withered)),4 (Herbicidal ratio of 70% or higher and lower than 90%),1 (Herbicidal ratio of 5% or higher and lower than 20%),3 (Herbicidal ratio of 40% or higher and lower than 70%),0 (Herbicidal ratio of 5% or lower (almost no effect)),3 (Herbicidal ratio of 40% or higher and lower than 70%),5 (Herbicidal ratio of 90% or more (almost completely withered))
